Assay results published in paper PMC6199744, “Development of Chemical Proteomics for the Folateome and Analysis of the Kinetoplastid Folateome” (ACS Infectious Diseases, 2018).
Where two headings read alike, the source gives them in different places.

Key:
Type in all cases: binding
[1] = target: T1, HeLa cell extract proteins (Homo sapiens, UniProt Q6P3X3)
T1 construct: endogenous in cells; host or cells: HeLa cell extract

[2] = target: T2, HeLa cell extract proteins (Homo sapiens, UniProt P53992)
T2 construct: endogenous in cells; host or cells: HeLa cell extract
T2 sequence (P53992 1-1094): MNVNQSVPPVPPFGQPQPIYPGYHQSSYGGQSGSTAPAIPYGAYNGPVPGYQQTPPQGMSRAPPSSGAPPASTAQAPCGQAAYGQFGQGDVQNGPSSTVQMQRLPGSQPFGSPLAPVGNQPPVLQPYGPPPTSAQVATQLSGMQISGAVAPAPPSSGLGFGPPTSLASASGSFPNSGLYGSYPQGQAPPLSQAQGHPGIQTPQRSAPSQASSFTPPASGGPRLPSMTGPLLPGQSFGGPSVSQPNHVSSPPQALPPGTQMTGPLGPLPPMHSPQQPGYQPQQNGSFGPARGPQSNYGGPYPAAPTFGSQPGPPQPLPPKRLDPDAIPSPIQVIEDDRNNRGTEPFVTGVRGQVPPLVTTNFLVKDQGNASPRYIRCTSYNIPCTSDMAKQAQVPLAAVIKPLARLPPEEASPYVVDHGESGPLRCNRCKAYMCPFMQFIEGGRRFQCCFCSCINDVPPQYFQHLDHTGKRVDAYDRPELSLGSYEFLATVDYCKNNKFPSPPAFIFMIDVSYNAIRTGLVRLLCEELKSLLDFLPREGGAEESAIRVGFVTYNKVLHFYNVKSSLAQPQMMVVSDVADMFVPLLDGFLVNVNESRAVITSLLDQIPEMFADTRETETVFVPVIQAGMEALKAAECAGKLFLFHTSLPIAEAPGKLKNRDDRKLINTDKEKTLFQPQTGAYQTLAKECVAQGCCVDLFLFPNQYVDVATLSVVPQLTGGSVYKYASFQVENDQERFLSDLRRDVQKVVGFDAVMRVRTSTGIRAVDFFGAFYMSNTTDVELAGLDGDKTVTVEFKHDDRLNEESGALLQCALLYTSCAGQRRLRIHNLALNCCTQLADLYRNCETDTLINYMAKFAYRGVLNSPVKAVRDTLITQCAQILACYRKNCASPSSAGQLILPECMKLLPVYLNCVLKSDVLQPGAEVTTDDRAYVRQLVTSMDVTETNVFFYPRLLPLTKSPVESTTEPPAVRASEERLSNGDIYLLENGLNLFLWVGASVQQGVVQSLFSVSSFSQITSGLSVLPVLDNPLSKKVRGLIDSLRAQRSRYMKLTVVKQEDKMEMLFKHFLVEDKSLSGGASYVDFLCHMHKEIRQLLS

[3] = target: T3, HeLa cell extract proteins (Homo sapiens, UniProt Q9Y262)
T3 construct: endogenous in cells; host or cells: HeLa cell extract

[4] = target: T4, HeLa cell extract proteins (Homo sapiens, UniProt P20674)
T4 construct: endogenous in cells; host or cells: HeLa cell extract

[5] = target: T5, HeLa cell extract proteins (Homo sapiens, UniProt P53701)
T5 construct: endogenous in cells; host or cells: HeLa cell extract
T5 sequence (P53701 1-268): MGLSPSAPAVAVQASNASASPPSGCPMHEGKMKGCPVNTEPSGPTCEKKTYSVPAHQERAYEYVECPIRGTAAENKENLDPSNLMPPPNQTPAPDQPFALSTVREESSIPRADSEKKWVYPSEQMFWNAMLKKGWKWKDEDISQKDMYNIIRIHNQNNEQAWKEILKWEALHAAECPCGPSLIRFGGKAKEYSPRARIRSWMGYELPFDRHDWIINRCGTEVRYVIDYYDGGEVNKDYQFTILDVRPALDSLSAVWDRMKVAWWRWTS

[6] = target: T6, HeLa cell extract proteins (Homo sapiens, UniProt O95486)
T6 construct: endogenous in cells; host or cells: HeLa cell extract
T6 sequence (O95486 1-1093): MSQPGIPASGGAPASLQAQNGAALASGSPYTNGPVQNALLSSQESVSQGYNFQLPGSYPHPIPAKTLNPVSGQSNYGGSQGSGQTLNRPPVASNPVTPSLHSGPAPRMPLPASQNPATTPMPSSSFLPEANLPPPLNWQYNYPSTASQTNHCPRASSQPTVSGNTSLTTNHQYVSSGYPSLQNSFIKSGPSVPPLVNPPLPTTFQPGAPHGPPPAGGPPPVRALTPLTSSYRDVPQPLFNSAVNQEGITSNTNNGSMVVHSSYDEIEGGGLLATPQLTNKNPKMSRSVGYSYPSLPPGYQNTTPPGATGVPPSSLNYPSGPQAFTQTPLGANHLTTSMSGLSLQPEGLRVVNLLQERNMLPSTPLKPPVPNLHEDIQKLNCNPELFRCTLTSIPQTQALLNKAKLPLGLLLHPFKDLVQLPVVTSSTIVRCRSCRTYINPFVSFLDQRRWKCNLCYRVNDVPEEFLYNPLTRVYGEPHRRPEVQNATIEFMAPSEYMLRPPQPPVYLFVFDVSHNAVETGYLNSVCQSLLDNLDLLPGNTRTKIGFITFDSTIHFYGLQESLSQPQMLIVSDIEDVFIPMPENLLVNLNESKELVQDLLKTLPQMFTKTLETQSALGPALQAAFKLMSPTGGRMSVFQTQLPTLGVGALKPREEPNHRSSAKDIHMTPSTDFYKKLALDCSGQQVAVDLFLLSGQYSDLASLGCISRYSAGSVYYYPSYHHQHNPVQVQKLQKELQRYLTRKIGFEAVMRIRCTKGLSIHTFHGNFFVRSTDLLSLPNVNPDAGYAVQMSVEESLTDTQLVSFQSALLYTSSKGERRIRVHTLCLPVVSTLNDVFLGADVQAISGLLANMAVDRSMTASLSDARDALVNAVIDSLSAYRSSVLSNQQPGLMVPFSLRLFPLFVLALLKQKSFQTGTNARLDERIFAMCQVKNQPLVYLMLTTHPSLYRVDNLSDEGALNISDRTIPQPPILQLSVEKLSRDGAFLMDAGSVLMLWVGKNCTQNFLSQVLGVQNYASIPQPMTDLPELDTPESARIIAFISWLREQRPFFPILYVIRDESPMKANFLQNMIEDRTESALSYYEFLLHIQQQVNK

T4 sequence (P20674 42-150): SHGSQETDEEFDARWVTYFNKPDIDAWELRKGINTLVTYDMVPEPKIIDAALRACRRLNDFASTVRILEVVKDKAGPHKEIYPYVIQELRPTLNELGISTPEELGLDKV
T3 sequence (Q9Y262 whole entry): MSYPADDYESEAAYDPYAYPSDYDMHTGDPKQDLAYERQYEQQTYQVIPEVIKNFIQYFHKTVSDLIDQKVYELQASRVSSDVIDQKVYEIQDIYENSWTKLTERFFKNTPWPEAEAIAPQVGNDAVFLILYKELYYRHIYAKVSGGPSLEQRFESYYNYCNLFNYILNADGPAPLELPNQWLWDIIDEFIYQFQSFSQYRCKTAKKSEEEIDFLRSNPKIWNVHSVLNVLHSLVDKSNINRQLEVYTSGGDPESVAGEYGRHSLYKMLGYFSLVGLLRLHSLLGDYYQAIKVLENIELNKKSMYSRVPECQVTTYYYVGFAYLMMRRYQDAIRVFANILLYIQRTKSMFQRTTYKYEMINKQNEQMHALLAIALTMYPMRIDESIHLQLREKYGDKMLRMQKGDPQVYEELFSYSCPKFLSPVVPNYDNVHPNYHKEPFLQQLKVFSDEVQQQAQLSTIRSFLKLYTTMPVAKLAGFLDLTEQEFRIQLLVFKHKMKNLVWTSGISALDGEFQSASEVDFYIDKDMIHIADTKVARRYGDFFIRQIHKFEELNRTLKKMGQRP

Row | Compound | fold changes relative to vehicle control ([1]; captured protein TTC27, HeLa) | fold changes relative to vehicle control ([2]; protein SEC24C, HeLa) | fold changes relative to vehicle control ([3]; protein EIF3L, HeLa) | fold changes relative to vehicle control ([4]; captured protein COX5A, HeLa) | fold changes relative to vehicle control ([5]; HeLa, protein HCCS) | fold changes relative to vehicle control ([6]; protein SEC24A, HeLa) | fold changes relative to vehicle control [1] | fold changes relative to vehicle control [2] | fold changes relative to vehicle control [3] | fold changes relative to vehicle control [4] | fold changes relative to vehicle control [5] | fold changes relative to vehicle control [6] | fold changes relative to vehicle control ([1]; protein TTC27, HeLa) | fold changes relative to vehicle control ([2]; HeLa, protein SEC24C) | fold changes relative to vehicle control ([3]; HeLa, captured protein EIF3L) | fold changes relative to vehicle control ([4]; HeLa, captured protein COX5A) | fold changes relative to vehicle control ([6]; HeLa, protein SEC24A)
1 | Nc1nc2cccc(-c3ccccc3)c2n1Cc1ccc(Cl)c(Cl)c1 [compound 3] | 0.81 | 1.28 | 1.09 | 1.18 | 0.96 | 1.03 |  |  |  |  |  |  |  |  |  |  | 
2 | Nc1nc2[nH]cc(CCc3ccc(C(=O)N[C@@H](CCC(=O)O)C(=O)O)cc3)c2c(=O)[nH]1 [PTX, pemetrexed] |  |  |  |  |  |  | 0.74 | 0.96 | 0.91 | 1.5 | 0.88 | 1.03 |  |  |  |  | 
3 | Nc1nc2c(c(=O)[nH]1)N(C=O)C(CNc1ccc(C(=O)N[C@@H](CCC(=O)O)C(=O)O)cc1)CN2 (stereo partly drawn) [LEU, leucovorin] |  |  |  |  | 0.88 |  |  |  |  |  |  |  | 0.76 | 0.98 | 1 | 1.23 | 1.02
4 | CCCCCCOc1cccc(Cc2cnc(N)nc2N)c1 [compound 2] | 0.92 | 1.01 | 1.25 | 0.91 | 0.9 | 1.44 |  |  |  |  |  |  |  |  |  |  | 
5 | NCCOCCOCC(=O)Nc1nc2ncc(CNc3ccc(C(=O)NC(CCC(=O)O)C(=O)O)cc3)nc2c(=O)[nH]1 (stereo not drawn) [compound 6] |  |  |  |  | 0.75 |  |  |  |  |  |  |  | 0.8 | 0.92 | 1.07 | 1.87 | 1.03
6 | CCCCCCOc1ccc(Cc2cnc(N)nc2N)cc1 [compound 1] | 0.94 | 1.03 | 1.05 | 0.98 | 0.84 | 1.15 |  |  |  |  |  |  |  |  |  |  | 
7 | NCCCNc1ccc(C(=O)NC(CCC(=O)O)C(=O)O)cc1 (stereo not drawn) [compound 7] |  |  |  |  | 0.98 |  |  |  |  |  |  |  | 0.82 | 1.14 | 0.93 | 1.63 | 1.01
